Results published in patent EP0878193A1, “REMEDIES FOR HERPESVIRUS INFECTION CAUSED BY HERPESVIRUS AND PREVENTIVES FOR RECURRENCE OF THE INFECTION BOTH CONTAINING TRITERPENE DERIVATIVES AS THE ACTIVE INGREDIENT” (Showa Shell Sekiyu K.K., priority 1996, dated 1997).
Values after ≈ are worked out from the molar mass of the structure shown.

Assays:
HSV-1 [1] = assay: skin infection of BALB/c mice with HSV-1, scoring of affected parts and survival; type: in vivo
Source text: In order to illustratively confirm the effect of 3-oxo-olean-18-en-28-oic acid (moronic acid) to inhibit growth of viruses after viral infection, skin cell tissues of BALB/c mice were infected with the strain HSV-1 and then the parts affected thereafter were observed and scored. The scores were made based on the average time (days ± standard deviation) until the affected parts reached score 2 (local efflorescence, bulla, erosion) or score 6 (slight shingles) and based on the survival days.

AP^r1 = assay: plaque formation test (antiviral activity, CPE as index) on Vero cells; type: cell-based; conditions: Human alphaherpesvirus 1, Vero, read-out: EC50 (µg/mℓ) (average ± standard deviation), 50% plaque formation inhibition concentration, three experiments
Source text: (§1) In order to examine antiviral activity, herpes simplex virus type 1 (strain 7401 H) (referred sometimes to as "HSV-1" hereinafter), TK deficiency herpes simplex virus type 1 (strain B 2006) (referred sometimes to as "TK^-" hereinafter), phosphono acetic acid (referred to as "PAA" hereinafter) resistant herpes simplex virus type 1 (PAA resistant strain derived from 7401 H) (referred sometimes to as "AP^r1" hereinafter) and herpes simplex virus type 2 (strain Ito 1262) (referred sometimes to as "HSV-2" hereinafter) were used as viruses. […]
(§2) That is, the above-described virus solution was diluted to a concentration of 100 plaques/0.2 mℓ, the thus diluted virus solution (0.2 mℓ) was inoculated into Vero cells which have been cultured into monolayer in a plastic dish of 60 mm in diameter, and the mixture was incubated at 37°C for 1 hour to effect adsorption of viruses to the Vero cells. After the adsorption, 2% fetal bovine serum-added MEM medium (5 mℓ) containing each drug solution to be measured having varied drug concentration and 0.8% methyl cellulose was overlaid on the just described virus-adsorbed monolayer Vero cells which were subsequently cultured at 37°C for 2 to 5 days to effect plaque formation. […] The number of plaques was counted under a stereoscopic microscope. […]

HSV-1 [2] = assay: as above; type: cell-based, herpes simplex virus type 1 (strain 7401 H); conditions: Human alphaherpesvirus 1, Vero, 50% plaque formation inhibition concentration; HSV-1 on Vero cells; three experiments; read-out: EC50 (µg/mℓ) (average ± standard deviation)
Source text: as §1, §2

HSV-2 = assay: as above; type: cell-based, herpes simplex virus type 2 (strain Ito 1262); conditions: Human alphaherpesvirus 2, Vero, 50% plaque formation inhibition concentration; HSV-2 on Vero cells; three experiments; read-out: EC50 (µg/mℓ) (average ± standard deviation)
Source text: as §1, §2

HSV-1 [3] = assay: viral DNA synthesis, slot-blot hybridization with radiation-labeled probe in Vero cells; type: cell-based, herpes simplex virus type 1 (strain 7401 H); conditions: HSV-1 in Vero cells; 0, 5, 10 or 20 µg/mℓ; even at 20 µg/mℓ; Fig. 2
Method: Finally, in order to examine effects of moronic acid on the viral synthesis ability, the amount of virus particles in cultured cells was measured by the slot-blot hybridization described in J. Traditional Med., 12, 187 - 194 (1995). Using a radiation-labeled probe, viral DNA synthesis ability of herpesvirus strains HSV-1 and AP^r1 was measured just after adsorption of the viruses to animal cells (Vero cells) or when concentration of 3-oxo-olean-18-en-28-oic acid (moronic acid) was changed (0, 5, 10 or 20 µg/mℓ), with the results shown as a chart in Fig. 2 (photograph).
In Fig. 2, rough amounts of each herpesvirus are shown by the strength of black parts. For the sake of comparison, DNA copy number of a virus TK^- is shown on the right-side column as a reference strength.

[4] = test system: HSV-1, AP^r1, TK^-, HSV-2; assay: viral growth inhibition activity, plaque forming unit (PFU/mℓ) as index, 24 hours culture; type: cell-based, herpes simplex virus; conditions: 5, 10 or 20 µg/mℓ compared with the control (water); also drug-resistant strains AP^r and TK^-; Table 2 is an image
Method: Next, the viral growth inhibition activity was measured in the following manner making use of a plaque forming unit (PFU/mℓ) as an index. That is, each of the above-described viral strains was adsorbed to Vero cells which have been cultured into monolayer in a plastic dish of 60 mm in diameter, and the resulting cells were supplemented with 2% fetal bovine serum-added MEM medium (3 mℓ) and 3-oxo-olean-18-en-28-oic acid solution (1 mℓ) having varied concentration and cultured at 37°C for 24 hours. After 24 hours, the thus infected cells were subjected to three times of freezing-thawing and then to centrifugation (3,000 rpm, 15 minutes), and the resulting supernatant fluid was used as a virus solution to count the number of infectious viruses by the above-described plaque formation test and to calculate the plaque forming unit (PFU/mℓ) based on the counts.

Vero cells = assay: cytotoxicity (observation, no method given); conditions: at the concentration by which it showed anti-herpesvirus activity
[5] = Exp. 3, 1 mg/kg oral three times a day
[6] = Exp. 3, 10 mg/kg oral three times a day
[7] = Exp.1, 1 mg/kg oral three times a day
[8] = Exp.2, 0.2 mg/kg oral three times a day
[9] = Exp.2, 1 mg/kg oral three times a day
[10] = Exp.2, 5 mg/kg oral three times a day

Compound: CC1(C)C=C2[C@H]3CC[C@@H]4[C@@]5(C)CCC(=O)C(C)(C)[C@@H]5CC[C@@]4(C)[C@]3(C)CC[C@@]2(C(=O)O)CC1 [Moronic acid, 3-oxo-olean-18-en-28-oic acid]
- Average time (days ± standard deviation) Score-2 (local efflorescence, bulla, erosion) (HSV-1 [1]; [5]): 3.80 ± 0.63 b days
- Average time (days ± standard deviation) Score-6 (slight shingles) (HSV-1 [1]; [5]): 5.60 ± 0.71 days
- Average time (days ± standard deviation) Survival (HSV-1 [1]; [5]): 7.70 ± 2.16 days
- Average time (days ± standard deviation) Score-2 (local efflorescence, bulla, erosion) (HSV-1 [1]; [6]): 3.70 ± 0.48 b days
- Average time (days ± standard deviation) Score-6 (slight shingles) (HSV-1 [1]; [6]): 5.30 ± 0.48 days
- Average time (days ± standard deviation) Survival (HSV-1 [1]; [6]): 6.80 ± 0.42 days
- Average time (days ± standard deviation) Score-2 (local efflorescence, bulla, erosion) (HSV-1 [1]; [7]): 3.90 ± 0.70 b days
- Average time (days ± standard deviation) Score-6 (slight shingles) (HSV-1 [1]; [7]): 5.70 ± 0.68 b days
- Average time (days ± standard deviation) Survival (HSV-1 [1]; [7]): 7.30 ± 1.16 b days
- Average time (days ± standard deviation) Score-2 (local efflorescence, bulla, erosion) (HSV-1 [1]; [8]): 4.00 ± 0.47 d days
- Average time (days ± standard deviation) Score-6 (slight shingles) (HSV-1 [1]; [8]): 5.78 ± 0.97 days
- Average time (days ± standard deviation) Survival (HSV-1 [1]; [8]): 6.89 ± 0.33 days
- Average time (days ± standard deviation) Score-2 (local efflorescence, bulla, erosion) (HSV-1 [1]; [9]): 3.60 ± 0.70 days
- Average time (days ± standard deviation) Score-6 (slight shingles) (HSV-1 [1]; [9]): 5.40 ± 0.52 days
- Average time (days ± standard deviation) Survival (HSV-1 [1]; [9]): 7.00 ± 1.49 days
- Average time (days ± standard deviation) Score-2 (local efflorescence, bulla, erosion) (HSV-1 [1]; [10]): 3.90 ± 0.74 b days
- Average time (days ± standard deviation) Score-6 (slight shingles) (HSV-1 [1]; [10]): 5.40 ± 0.53 days
- Average time (days ± standard deviation) Survival (HSV-1 [1]; [10]): 7.10 ± 1.52 days
- EC50 (AP^r1): 1.6 ± 0.4 µg/mL (≈ 3.52 µM)
- EC50 (HSV-1 [2]): 3.9 ± 1.1 µg/mL (≈ 8.58 µM)
- EC50 (HSV-2): 5.8 ± 0.5 µg/mL (≈ 12.8 µM)
- effect to inhibit virus DNA synthesis (HSV-1 [3]): not found
- ratio of plaques formed by each viral strain [4]: decreases
- cytotoxicity (Vero cells): not observed
